Experimental findings from patent US6475434B1, “Composition and methods for preventing and removing biofilm embedded microorganisms from the surface of medical devices” (Baylor College of Medicine, priority 1998, dated 2002) are described below.

Assay [1] deals with Staphylococcus epidermidis. Description: Minimal bactericidal concentration for the studied strain. The note with it: studied strain of Staphylococcus epidermidis. Format: cell-based. On the procedure:
Treatment phase: The lumens of the eight catheters were treated with biofilm penetrating composition solutions as described in Table I. The N-acetylcysteine and rifampin are used at a concentration equivalent to ten times the corresponding minimal bactericidal concentration of the N-aceylcysteine and the rifampin for the studied strain of Staphylococcus epidermidis (3.1 mg/ml and 0.02 μg/ml respectively).

In assay [2] the test system is Staphylococcus epidermidis. Description: Flush cultures of biofilm-colonised catheter lumens after treatment solutions (Example 1). The class given is cell-based. On the procedure:
Seeding phase: A dynamic flow sterile system that consisted of an infusion bad containing a bacterial suspension of Staphylococcus epidermidis (4×10^5 cfu/ml of saline) that infused at equal (about 41 ml/hour) into the lumens of eight ethylene oxide gas sterilized, 7-french, 20 cm polyurethane, single-lumen catheters for 12 hours at room temperature. The catheters were covered plastic sheath to ensure sterility of the surfaces. The bacterial suspension drained from the catheters into beakers.
Growth phase: The lumens of the four catheters were infused with sterile trypticase soy broth (“TSB”) at a rate of 10 ml/hour for 24 hours to allow for biofilm formation. The infused broth drained from the catheters into the beakers. […]
The clamps were removed from each end of Catheters 1, 3, 5, and 7 and the treatment solutions were drained. […] Hundred microliter aliquots of the collected portions of the flushed TSB and 10-fold serial dilutions were inoculated onto chocolate agar plates and colony counts were determined after incubation of agar plates at 37° C. for 48 hours.

Structures are written as SMILES. ≈ marks a conversion by molar mass, not a printed value.

In assay [1], `CC(=O)N[C@@H](CS)C(=O)O` [N-acetylcysteine] came in with an MBC of 3100 µg/mL (≈ 19 mM). Further, in assay [2] (Example 1 conclusion, 31 mg/ml in phosphate buffered saline), the “effect on biofilm and biofilm embedded microorganisms (in words)” value was “effectively penetrates and breaks-up the biofilm and kills biofilm embedded microorganisms”. The “antimicrobial activity against biofilm embedded microorganisms compared with rifampin (in words)” value in assay [2] (assessed by flush cultures, at the concentration used) is given as “surpasses the antimicrobial activity of rifampin”.

Consider `CO[C@H]1/C=C/O[C@@]2(C)Oc3c(C)c(O)c4c(O)c(c(/C=N/N5CCN(C)CC5)c(O)c4c3C2=O)NC(=O)/C(C)=C\C=C\[C@H](C)[C@H](O)[C@@H](C)[C@@H](O)[C@@H](C)[C@H](OC(C)=O)[C@@H]1C` [rifampin], for which the MBC in assay [1] amounted to 0.02 µg/mL (≈ 2.43e-05 mM).
